# Results reported in patent US20210128566A1, “NOVEL FUNCTIONALIZED PURINE-2,6-DIONES AND THEIR USE IN MEDICINE” (THOMAS HELLEDAYS STIFTELSE FÖR MEDICINSK FORSKNING, priority 2017, published 2021).
# Target: recombinant human NUDT5 (Homo sapiens, UniProt Q9UKK9)
# Assay: NUDT5 inhibitor activity by malachite green reporter assay
# Assay type: biochemical
# Conditions: Table 3; 6 nM NUDT5, 50 μM ADP-Ribose, 15 minutes at room temperature
# Description: NUDT5 inhibitors were evaluated using a coupled enzymatic assay with detection of inorganic phosphate (Pi) using the malachite green assay. Following enzymatic hydrolysis of ADP-Ribose (Sigma-Aldrich A0572) by NUDT5, to yield AMP and ribose-5-phosphate, the latter product is continuously processed by a significant excess of alkaline phosphatase (Sigma-Aldrich, P0114). Formation of Pi is quantified based on the green complex (that absorbs at 630 nm) formed between malachite green and molybdate according to published procedure (Baykov, A. A., Evtushenko, O. A. and Avaeva, S. M., Anal Biochem, 171, 266-270 (1988)). Assay buffer consisted of 10 mM Tris-acetate at pH 8.0, 40 mM sodium chloride, 10 mM magnesium acetate, 0.005% Tween-20 and 1 mM dithiothreitol (DTT). The final conditions consisted of 6 nM recombinant human NUDT5, 50 μM ADP-Ribose and 10 U/ml of calf intestine alkaline phosphatase. The plates with compounds, enzymes and substrate were incubated at room temperature for 15 minutes, after which the reaction was terminated and the signal developed by the addition of the malachite green reagent using a MultiDrop (Thermo Scientific). Following vigorous shaking on plate shakers for a minimum of eight minutes the absorbance was read in a microplate reader (HidexSense) using a filter at 630 nm and a read time of 0.1 s per well. Inhibitors were used in dilutions from 100 μM to 1.7 nM in 3-fold dilution steps. Experiments were run in duplicate and confirmed in two independent experiments. IC50 values were determined by curve fitting using ExcelFit.
row,Compound,IC50 [nM]
1,"CC1CN(c2nc3c(c(=O)n(C)c(=O)n3C)n2Cc2nnc(-c3ccc(Cl)c(Cl)c3)o2)CCN1 (stereo not drawn) [Example 33, 7-{[5-(3,4-dichlorophenyl)-1,3,4-oxadiazol-2-yl]methyl}-1,3-dimethyl-8-(3-methylpiperazin-1-yl)-2,3,6,7-tetrahydro-1H-purine-2,6-dione]",17.8
2,"CNc1nc2c(c(=O)n(C)c(=O)n2C)n1Cc1nnc(-c2ccc(Cl)c(Cl)c2)o1 [Example 5, 7-{[5-(3,4-dichlorophenyl)-1,3,4-oxadiazo-2-yl]methyl}-1,3-dimethyl-8-(methylamino)-2,3,6,7-tetrahydro-1H-purine-2,6-dione]",12.5
3,"CCCCN1CCN(c2nc3c(c(=O)n(C)c(=O)n3C)n2Cc2nnc(-c3cccc(C)c3)o2)CC1 [Example 54, 8-(4-butylpiperazin-1-yl)-1,3-dimethyl-7-{[5-(3-methylphenyl)-1,3,4-oxadiazol-2-yl]methyl}-2,3,6,7-tetrahydro-1H-purine-2,6-dione]",> 1000
4,"CCN1CCN(c2nc3c(c(=O)n(C)c(=O)n3C)n2Cc2nnc(-c3cccc(C)c3)o2)CC1 [Example 55, 8-(4-ethylpiperazin-1-yl)-1,3-dimethyl-7-{[5-(3-methylphenyl)-1,3,4-oxadiazol-2-yl]methyl}-2,3,6,7-tetrahydro-1H-purine-2,6-dione]",221
5,"C=CCN(CC=C)c1nc2c(c(=O)n(C)c(=O)n2C)n1Cc1nnc(-c2ccc(Cl)c(Cl)c2)o1 [Example 8, 8-[bis(prop-2-en-1-yl)amino]-7-{[5-(3,4-dichlorophenyl)-1,3,4-oxadiazol-2-yl]methyl}-1,3-dimethyl-2,3,6,7-tetrahydro-1H-purine-2,6-dione]",162
6,"CCCNc1nc2c(c(=O)n(C)c(=O)n2C)n1Cc1nnc(-c2cccc(C)c2)o1 [Example 49, 1,3-dimethyl-7-{[5-(3-methylphenyl)-1,3,4-oxadiazol-2-yl]methyl}-8-(propylamino)-2,3,6,7-tetrahydro-1H-purine-2,6-dione]",356
7,"Cn1c(=O)c2c(nc(N3CCC(O)CC3)n2Cc2nnc(-c3ccc(Cl)c(Cl)c3)o2)n(C)c1=O [Example 37, 7-{[5-(3,4-dichlorophenyl)-1,3,4-oxadiazol-2-yl]methyl}-8-(4-hydroxypiperidin-1-yl)-1,3-dimethyl-2,3,6,7-tetrahydro-1H-purine-2,6-dione]",19.8
8,"Cn1c(=O)c2c(nc(N3CC(NC(=O)OC(C)(C)C)C3)n2Cc2nnc(-c3ccc(Cl)c(Cl)c3)o2)n(C)c1=O [Example 26, tert-butyl N-[1-(7-{[5-(3,4-dichlorophenyl)-1,3,4-oxadiazol-2-yl]methyl}-1,3-dimethyl-2,6-dioxo-2,3,6,7-tetrahydro-1H-purin-8-yl)azetidin-3-yl]carbamate]",324
9,"CN(C)C1CCN(c2nc3c(c(=O)n(C)c(=O)n3C)n2Cc2nnc(-c3ccc(Cl)c(Cl)c3)o2)CC1 [Example 45, 7-{[5-(3,4-dichlorophenyl)-1,3,4-oxadiazol-2-yl]methyl}-8-[4-(dimethylamino)piperidin-1-yl]-1,3-dimethyl-2,3,6,7-tetrahydro-1H-purine-2,6-dione]",14.9
10,"Cn1c(=O)c2c(nc(N3CCCC(O)C3)n2Cc2nnc(-c3ccc(Cl)c(Cl)c3)o2)n(C)c1=O (stereo not drawn) [Example 44, 7-{[5-(3,4-dichlorophenyl)-1,3,4-oxadiazol-2-yl]methyl}-8-(3-hydroxypiperidin-1-yl)-1,3-dimethyl-2,3,6,7-tetrahydro-1H-purine-2,6-dione]",21.5
11,"Cn1c(=O)c2c(nc(N3CCN(C(=O)OC(C)(C)C)CC3)n2Cc2nnc(-c3ccc(Cl)c(Cl)c3)o2)n(C)c1=O [Example 14, tert-butyl 4-(7-{[5-(3,4-dichlorophenyl)-1,3,4-oxadiazol-2-yl]methyl}-1,3-dimethyl-2,6-dioxo-2,3,6,7-tetrahydro-1H-purin-8-yl)piperazine-1-carboxylate]",164

# Same assay, conditions: Table 4; 6 nM NUDT5, 50 μM ADP-Ribose, 15 minutes at room temperature
row,Compound,IC50 [nM]
1,"COc1ccc(-c2nnc(Cn3c(N4CCNCC4)nc4c3c(=O)n(C)c(=O)n4C)o2)cc1Cl [Example 118, 7-{[5-(3-chloro-4-methoxyphenyl)-1,3,4-oxadiazol-2-yl]methyl}-1,3-dimethyl-8-(piperazin-1-yl)-2,3,6,7-tetrahydro-1H-purine-2,6-dione]",17.4
2,"Cc1cc(-c2nnc(Cn3c(Cl)nc4c3c(=O)n(C)c(=O)n4C)o2)ccc1Cl [Example 97, 8-chloro-7-{[5-(4-chloro-3-methylphenyl)-1,3,4-oxadiazol-2-yl]methyl}-1,3-dimethyl-2,3,6,7-tetrahydro-1H-purine-2,6-dione]",64.8
3,"COc1cc(-c2nnc(Cn3c(N4CC[C@@H](N(C)C)C4)nc4c3c(=O)n(C)c(=O)n4C)o2)ccc1C [Example 139, 8-[(3R)-3-(dimethylamino)pyrrolidin-1-yl]-7-{[5-(3-methoxy-4-methylphenyl)-1,3,4-oxadiazol-2-yl]methyl}-1,3-dimethyl-2,3,6,7-tetrahydro-1H-purine-2,6-dione]",265
4,"COc1cc(-c2nnc(Cn3c(N(C)CCN(C)C)nc4c3c(=O)n(C)c(=O)n4C)o2)ccc1C [Example 137, 8-{[2-(dimethylamino)ethyl](methyl)amino}-7-{[5-(3-methoxy-4-methylphenyl)-1,3,4-oxadiazol-2-yl]methyl}-1,3-dimethyl-2,3,6,7-tetrahydro-1H-purine-2,6-dione]",24.1
5,"Cc1ccc(-c2cc(Cn3c(Cl)nc4c3c(=O)n(C)c(=O)n4C)no2)cc1 [Example 80, 8-chloro-1,3-dimethyl-7-{[5-(4-methylphenyl)-1,2-oxazol-3-yl]methyl}-2,3,6,7-tetrahydro-1H-purine-2,6-dione]",3790
6,"Cn1c(=O)c2c(nc(N3CCNCC3)n2Cc2nnc(-c3ccc(CS(C)(=O)=O)cc3)o2)n(C)c1=O [Example 122, 7-({5-[4-(methanesulfonylmethyl)phenyl]-1,3,4-oxadiazol-2-yl}methyl)-1,3-dimethyl-8-(piperazin-1-yl)-2,3,6,7-tetrahydro-1H-purine-2,6-dione]",24400
7,"Cn1c(=O)c2c(nc(N3CCNCC3)n2Cc2nnc(-c3ccc(C(F)(F)F)cc3)o2)n(C)c1=O [Example 121, 1,3-dimethyl-8-(piperazin-1-yl)-7-({5-[4-(trifluoromethyl)phenyl]-1,3,4-oxadiazol-2-yl}methyl)-2,3,6,7-tetrahydro-1H-purine-2,6-dione]",51.6
8,"Cn1c(=O)c2c(nc(N3CCNCC3)n2Cc2nc(-c3ccc(Cl)cc3)no2)n(C)c1=O [Example 70, 7-{[3-(4-chlorophenyl)-1,2,4-oxadiazol-5-yl]methyl}-1,3-dimethyl-8-(piperazin-1-yl)-2,3,6,7-tetrahydro-1H-purine-2,6-dione]",57.4
9,"Cn1c(=O)c2c(nc(N3CCC(CNC(=O)OC(C)(C)C)CC3)n2Cc2nnc(-c3ccc(Cl)c(Cl)c3)o2)n(C)c1=O [Example 65, tert-butyl N-{[1-(7-{[5-(3,4-dichlorophenyl)-1,3,4-oxadiazol-2-yl]methyl}-1,3-dimethyl-2,6-dioxo-2,3,6,7-tetrahydro-1H-purin-8-yl)piperidin-4-yl]methyl}carbamate]",33.8
10,"COc1cc(-c2nnc(Cn3c(Cl)nc4c3c(=O)n(C)c(=O)n4C)o2)ccc1Cl [Example 98, 8-chloro-7-{[5-(4-chloro-3-methoxyphenyl)-1,3,4-oxadiazol-2-yl]methyl}-1,3-dimethyl-2,3,6,7-tetrahydro-1H-purine-2,6-dione]",378
11,"Cn1c(=O)c2c(nc(N3CCNCC3)n2Cc2nnc(-c3ccc(F)cc3)o2)n(C)c1=O [Example 109, 7-{[5-(4-fluorophenyl)-1,3,4-oxadiazol-2-yl]methyl}-1,3-dimethyl-8-(piperazin-1-yl)-2,3,6,7-tetrahydro-1H-purine-2,6-dione]",345
12,"COc1ccc(-c2nnc(Cn3c(Cl)nc4c3c(=O)n(C)c(=O)n4C)o2)cc1OC [Example 104, 8-chloro-7-{[5-(3,4-dimethoxyphenyl)-1,3,4-oxadiazol-2-yl]methyl}-1,3-dimethyl-2,3,6,7-tetrahydro-1H-purine-2,6-dione]",> 100000
13,"Cn1c(=O)c2c(nc(Cl)n2Cc2nnc(-c3ccc(F)cc3)o2)n(C)c1=O [Example 90, 8-chloro-7-{[5-(4-fluorophenyl)-1,3,4-oxadiazol-2-yl]methyl}-1,3-dimethyl-2,3,6,7-tetrahydro-1H-purine-2,6-dione]",4390
14,"Cn1c(=O)c2c(nc(Cl)n2Cc2cn(-c3ccc(Cl)c(Cl)c3)nn2)n(C)c1=O [Example 143, 8-chloro-7-{[1-(3,4-dichlorophenyl)-1H-1,2,3-triazol-4-yl]methyl}-1,3-dimethyl-2,3,6,7-tetrahydro-1H-purine-2,6-dione]",14000
15,"Cc1ccc(-c2nnc(Cn3c(Cl)nc4c3c(=O)n(C)c(=O)n4C)o2)cn1 [Example 106, 8-chloro-1,3-dimethyl-7-{[5-(6-methylpyridin-3-yl)-1,3,4-oxadiazol-2-yl]methyl}-2,3,6,7-tetrahydro-1H-purine-2,6-dione]",2920
16,"Cc1ccc(-c2nnc(Cn3c(N4CCNCC4)nc4c3c(=O)n(C)c(=O)n4C)o2)cn1 [Example 125, 1,3-dimethyl-7-{[5-(6-methylpyridin-3-yl)-1,3,4-oxadiazol-2-yl]methyl}-8-(piperazin-1-yl)-2,3,6,7-tetrahydro-1H-purine-2,6-dione]",216
